Reference: patent publication US20140303164A1, “THERAPEUTIC COMPOUNDS” (Gilead Sciences, Inc., priority 2013, published 2014)

How the values were obtained:
[1] = test system: HIV-IIIb; assay: Test A: Antiviral Assay in MT4 Cells; type: cell-based, HIV-1; settings: Human immunodeficiency virus 1, IIIB, MT4, 120 h; for inhibition at 0.2 µM: read-out: % inhibition at 0.2 μM; for inhibition at 2 µM: read-out: % inhibition at 2 μM
Method: Test A: Antiviral Assay in MT4 Cells
MT-4 cells were next mixed with HIV-IIIb at an m.o.i of 0.003 for 1 hour, after which time 35 μL of virus/cell mixture (2000 cells) was immediately added to each well containing 40 μL of diluted compound. The plates were then incubated at 37° C. for 5 days. […] Cell lysis was carried out by incubating at room temperature for 10 min and then chemiluminescence was read.

[2] = Test B: Cytotoxicity Assay; type: cell-based; settings: human, uninfected MT-4 cells, same protocol as Test A
In short: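 Uninfected MT-4 cells (2000 per well) incubated with diluted compound at 37° C. for 5 days, following the antiviral protocol without HIV-IIIb.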

SMILES	inhibition at 0.2 µM [1]	inhibition at 2 µM [1]	CC50 at 5 days [2]
Cn1nc(NC(=O)N2CCOCC2)c2cccc(-c3ccc(C#CC(C)(C)O)nc3[C@H](Cc3cc(F)cc(F)c3)NC(=O)Cn3nc(C(F)(F)F)c4c3C(F)(F)[C@@H]3C[C@H]43)c21 [Compound 52, N-(7-(2-((S)-1-(2-((3bS,4aR)-5,5-difluoro-3-(trifluoromethyl)-3b,4,4a,5-tetrahydro-1H-cyclopropa[3,4]cyclopenta[1,2-c]pyrazol-1-yl)acetamido)-2-(3,5-difluorophenyl)ethyl)-6-(3-hydroxy-3-methylbut-1-yn-1-yl)pyridin-3-yl)-1-methyl-1H-indazol-3-yl)morpholine-4-carboxamide]	92%	93%	31.8 µM
Cn1nc(NS(C)(=O)=O)c2c(Cl)ccc(-c3ccc(C#CC(C)(C)O)nc3[C@H](Cc3cc(F)cc(F)c3)NC(=O)Cn3nc4c(c3Cl)CCCC4)c21 [Compound 125D, (S)—N-(1-(3-(4 chloro-1-methyl-3-(methylsulfonamido)-1H-indazol-7-yl)-6-(3-hydroxy-3-methylbut-1-yn-1-yl)pyridin-2-yl)-2-(3,5-difluorophenyl)ethyl)-2-(3-chloro-4,5,6,7-tetrahydro-2H-indazol-2-yl)acetamide]	96%	97%	13.6 µM
Cn1cc(-c2ccc(-c3cccc4c(NS(C)(=O)=O)nn(C)c34)c([C@H](Cc3cc(F)cc(F)c3)NC(=O)Cn3nc(C(F)(F)F)c4c3C(F)(F)[C@@H]3C[C@H]43)n2)cn1 [Compound 60, 2-((3bS,4aR)-5,5-difluoro-3-(trifluoromethyl)-3b,4,4a,5-tetrahydro-1H-cyclopropa[3,4]cyclopenta[1,2-c]pyrazol-1-yl)-N—((S)-2-(3,5-difluorophenyl)-1-(6-(1-methyl-1H-pyrazol-4-yl)-3-(1-methyl-3-(methylsulfonamido)-1H-indazol-7-yl)pyridin-2-yl)ethyl)acetamide]	86%	96%	14.3 µM
Cn1nc(NS(N)(=O)=O)c2cccc(-c3ccc(C#CC(C)(C)O)nc3[C@H](Cc3cc(F)cc(F)c3)NC(=O)Cn3nc(C(F)F)c4c3C(F)(F)[C@@H]3C[C@H]43)c21 [Compound 54, 2-((3b-S,4aR)-3-(difluoromethyl)-5,5-difluoro-3b,4,4a,5-tetrahydro-1H-cyclopropa[3,4]cyclopenta[1,2-c]pyrazol-1-yl)-N—((S)-2-(3,5-difluorophenyl)-1-(6-(3-hydroxy-3-methylbut-1-yn-1-yl)-3-(1-methyl-3-(sulfamoylamino)-1H-indazol-7-yl)pyridin-2-yl)ethyl)acetamide]	98%	98%	8.08 µM
Cn1nc(NC(=O)NC2CC2)c2cccc(-c3ccc(C#CC(C)(C)O)nc3[C@H](Cc3cc(F)cc(F)c3)NC(=O)Cn3nc(C(F)(F)F)c4c3C(F)(F)[C@@H]3C[C@H]43)c21 [Compound 50, N—((S)-1-(3-(3-(3-cyclopropylureido)-1-methyl-1H-indazol-7-yl)-6-(3-hydroxy-3-methylbut-1-yn-1-yl)pyridin-2-yl)-2-(3,5-difluorophenyl)ethyl)-2-((3b-S,4aR)-5,5-difluoro-3-(trifluoromethyl)-3b,4,4a,5-tetrahydro-1H-cyclopropa[3,4]cyclopenta[1,2-c]pyrazol-1-yl)acetamide]	95%	96%	11.7 µM
Cn1nc(NS(C)(=O)=O)c2c(Cl)ccc(-c3ccc(C#CC(C)(O)CO)nc3[C@H](Cc3cc(F)cc(F)c3)NC(=O)Cn3nc(C(F)F)c4c3C(F)(F)[C@@H]3C[C@H]43)c21 (stereo partly drawn) [Compound 166, N-((1S)-1-(3-(4-chloro-1-methyl-3-(methylsulfonamido)-1H-indazol-7-yl)-6-(3,4-dihydroxy-3-methylbut-1-yn-1-yl)pyridin-2-yl)-2-(3,5-difluorophenyl)ethyl)-2-((3b-S,4aR)-3-(difluoromethyl)-5,5-difluoro-3b,4,4a,5-tetrahydro-1H-cyclopropa[3,4]cyclopenta[1,2-c]pyrazol-1-yl)acetamide]	92%	92%	24.4 µM
CC(C)(C)C#Cc1ccc(-c2ccc(Cl)n3c(N)nnc23)c([C@H](Cc2cc(F)cc(F)c2)NC(=O)Cn2nc(C(F)F)c3c2C(F)(F)[C@@H]2C[C@H]32)n1 [Compound 115C, N—((S)-1-(3-(3-amino-5-chloro-[1,2,4]triazolo[4,3-a]pyridin-8-yl)-6-(3,3-dimethylbut-1-yn-1-yl)pyridin-2-yl)-2-(3,5-difluorophenyl)ethyl)-2-((3b-S,4aR)-3-(difluoromethyl)-5,5-difluoro-3b,4,4a,5-tetrahydro-1H-cyclopropa[3,4]cyclopenta[1,2-c]pyrazol-1-yl)acetamide]	84%	91%	9.31 µM
Cn1nc(NC(=O)CN2CCCC2)c2c(Cl)ccc(-c3ccc(C#CC(C)(C)O)nc3[C@H](Cc3cc(F)cc(F)c3)NC(=O)Cn3nc(C(F)F)c4c3C(F)(F)[C@@H]3C[C@H]43)c21 [Compound 100, N—((S)-1-(3-(4-chloro-1-methyl-3-(2-(pyrrolidin-1-yl)acetamido)-1H-indazol-7-yl)-6-(3-hydroxy-3-methylbut-1-yn-1-yl)pyridin-2-yl)-2-(3,5-difluorophenyl)ethyl)-2-((3b-S,4aR)-3-(difluoromethyl)-5,5-difluoro-3b,4,4a,5-tetrahydro-1H-cyclopropa[3,4]cyclopenta[1,2-c]pyrazol-1-yl)acetamide]	99%	99%	5.14 µM
CN(C)CC#Cc1ccc(-c2cccc3c(NS(C)(=O)=O)nn(C)c23)c([C@H](Cc2cc(F)cc(F)c2)NC(=O)Cn2nc(C(F)(F)F)c3c2C(F)(F)[C@@H]2C[C@H]32)n1 [Compound 61B, 2-((3bS,4aR)-5,5-difluoro-3-(trifluoromethyl)-3b,4,4a,5-tetrahydro-1H-cyclopropa[3,4]cyclopenta[1,2-c]pyrazol-1-yl)-N—((S)-2-(3,5-difluorophenyl)-1-(6-(3-(dimethylamino)prop-1-yn-1-yl)-3-(1-methyl-3-(methylsulfonamido)-1H-indazol-7-yl)pyridin-2-yl)ethyl)acetamide]	96%	96%	14.3 µM
Cn1cc(S(=O)(=O)Nc2nn(C)c3c(-c4ccc(C#CC(C)(C)O)nc4[C@H](Cc4cc(F)cc(F)c4)NC(=O)Cn4nc(C(F)(F)F)c5c4C(F)(F)[C@@H]4C[C@H]54)cccc23)cn1 [Compound 48, 2-((3bS,4aR)-5,5-difluoro-3-(trifluoromethyl)-3b,4,4a,5-tetrahydro-1H-cyclopropa[3,4]cyclopenta[1,2-c]pyrazol-1-yl)-N—((S)-2-(3,5-difluorophenyl)-1-(6-(3-hydroxy-3-methylbut-1-yn-1-yl)-3-(1-methyl-3-(1-methyl-1H-pyrazole-4-sulfonamido)-1H-indazol-7-yl)pyridin-2-yl)ethyl)acetamide]	88%	88%	24 µM
CNc1nn(C)c2c(-c3ccc(C#CC(C)(C)O)nc3[C@H](Cc3cc(F)cc(F)c3)NC(=O)Cn3nc(C(F)F)c4c3C(F)(F)[C@@H]3C[C@H]43)ccc(Cl)c12 [Compound 81, N—((S)-1-(3-(4-chloro-1-methyl-3-(methylamino)-1H-indazol-7-yl)-6-(3-hydroxy-3-methylbut-1-yn-1-yl)pyridin-2-yl)-2-(3,5-difluorophenyl)ethyl)-2-((3bS,4aR)-3-(difluoromethyl)-5,5-difluoro-3b,4,4a,5-tetrahydro-1H-cyclopropa[3,4]cyclopenta[1,2-c]pyrazol-1-yl)acetamide]	100%	100%	12.5 µM
Cn1ncc2c(Cl)ccc(-c3ccc(C#CC(C)(C)O)nc3[C@H](Cc3cc(F)cc(F)c3)NC(=O)Cn3nc(C(F)F)c4c3C(F)(F)[C@@H]3C[C@H]43)c21 [Compound 137C, N—((S)-1-(3-(4-chloro-1-methyl-1H-indazol-7-yl)-6-(3-hydroxy-3-methylbut-1-yn-1-yl)pyridin-2-yl)-2-(3,5-difluorophenyl)ethyl)-2-((3b-S,4aR)-3-(difluoromethyl)-5,5-difluoro-3b,4,4a,5-tetrahydro-1H-cyclopropa[3,4]cyclopenta[1,2-c]pyrazol-1-yl)acetamide]	93%	100%	7.88 µM
CNS(=O)(=O)Nc1nn(C)c2c(-c3ccc(C#CC(C)(C)O)nc3[C@H](Cc3cc(F)cc(F)c3)NC(=O)Cn3nc(C(F)F)c4c3C(F)(F)[C@@H]3C[C@H]43)ccc(Cl)c12 [Compound 123, N—((S)-1-(3-(4-chloro-1-methyl-3-((N-methylsulfamoyl)amino)-1H-indazol-7-yl)-6-(3-hydroxy-3-methylbut-1-yn-1-yl)pyridin-2-yl)-2-(3,5-difluorophenyl)ethyl)-2-((3b-S,4aR)-3-(difluoromethyl)-5,5-difluoro-3b,4,4a,5-tetrahydro-1H-cyclopropa[3,4]cyclopenta[1,2-c]pyrazol-1-yl)acetamide]	90%	90%	7.9 µM
COc1ccc2[nH]cc(CC(=O)N[C@@H](Cc3cc(F)cc(F)c3)c3nc(C#CC(C)(C)O)ccc3-c3ccc(Cl)c4c(NS(C)(=O)=O)nn(C)c34)c2n1 [Compound 194, (S)—N-(1-(3-(4 chloro-1-methyl-3-(methylsulfonamido)-1H-indazol-7-yl)-6-(3-hydroxy-3-methylbut-1-yn-1-yl)pyridin-2-yl)-2-(3,5-difluorophenyl)ethyl)-2-(5-methoxy-1H-pyrrolo[3,2-b]pyridin-3-yl)acetamide]	84%	99%	21.3 µM
